According to patent US10357481B2 (MERCK SHARP & DOHME CORP., priority 2015, dated 2019):
Like-named read-outs stand apart in the source and are kept apart here. One block for each compound: values may come before it.

Legend:
Rhesus PDE2A3 = target: T1, Rhesus PDE2A3 (Macaca mulatta, UniProt B3VTJ2); test: PDE2 fluorescence polarization (IMAP FP) inhibition assay, rhesus PDE2A3; type: biochemical, rhesus macaque
T1 construct: made in house; host or cells: AD293 cells, transiently transfected with pcDNA3.3-TOPO; lysate supernatant used
T1 sequence (B3VTJ2 1-941): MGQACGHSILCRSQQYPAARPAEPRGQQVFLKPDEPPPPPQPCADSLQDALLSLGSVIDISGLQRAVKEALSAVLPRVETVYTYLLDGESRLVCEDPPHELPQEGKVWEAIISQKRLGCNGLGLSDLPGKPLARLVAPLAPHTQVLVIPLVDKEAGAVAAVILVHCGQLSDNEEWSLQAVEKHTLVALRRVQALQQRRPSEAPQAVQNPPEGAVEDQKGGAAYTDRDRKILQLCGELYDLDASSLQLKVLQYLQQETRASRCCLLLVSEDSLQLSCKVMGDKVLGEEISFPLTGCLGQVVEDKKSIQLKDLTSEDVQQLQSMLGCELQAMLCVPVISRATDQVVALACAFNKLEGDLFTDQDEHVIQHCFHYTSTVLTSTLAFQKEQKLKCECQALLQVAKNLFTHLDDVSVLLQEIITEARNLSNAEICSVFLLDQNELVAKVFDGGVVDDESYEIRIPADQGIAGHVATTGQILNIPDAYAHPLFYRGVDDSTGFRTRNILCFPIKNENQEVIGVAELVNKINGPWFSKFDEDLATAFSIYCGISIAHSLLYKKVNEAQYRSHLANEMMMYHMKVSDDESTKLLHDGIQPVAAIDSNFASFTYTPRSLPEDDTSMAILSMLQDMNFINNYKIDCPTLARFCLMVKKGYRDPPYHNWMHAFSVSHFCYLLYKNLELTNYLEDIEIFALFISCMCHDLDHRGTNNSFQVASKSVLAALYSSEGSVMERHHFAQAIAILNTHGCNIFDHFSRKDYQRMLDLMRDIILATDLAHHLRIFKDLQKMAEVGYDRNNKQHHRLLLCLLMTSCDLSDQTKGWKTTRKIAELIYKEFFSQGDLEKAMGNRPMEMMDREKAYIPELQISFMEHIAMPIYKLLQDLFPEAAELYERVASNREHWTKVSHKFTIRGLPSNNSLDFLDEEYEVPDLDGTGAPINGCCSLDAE
Description: The activity of the compounds in accordance with the present invention as PDE2 inhibitors may be readily determined using a fluorescence polarization (FP) methodology (Huang, W., et al., J. Biomol Screen, 2002, 7: 215).
In a typical experiment the PDE2 inhibitory activity of the compounds of the present invention was determined in accordance with the following experimental method. Rhesus PDE2A3 was amplified from rhesus macaque brain cDNA (Biochain Institute, Hayward, Calif.) using primers based on human PDE2A sequence (accession NM_002599.3) where the forward primer containing a Kozak consensus was 5′-[…]-3′ and the reverse primer was 5′-[…]-3′. Amplification with Easy-A High-Fidelity PCR cloning enzyme (Stratagene, La Jolla, Calif.) was 95° C. for 2 minutes followed by thirty three cycles of 95° C. for 40 seconds, 52° C. for 30 seconds, and 72° C. for 2 minutes 48 seconds. Final extension was 72° C. for 7 minutes. The PCR product was TA cloned into pcDNA3.3-TOPO (Invitrogen, Carlsbad, Calif.) aaccording to standard protocol. A consensus sequence was developed from multiple clones and then deposited into GenBank (EU812167). AD293 cells (Stratagene, La Jolla, Calif.) with 70-80% confluency were transiently transfected with rhesus PDE2A3/pcDNA3.3-TOPO using Lipofectamine 2000 according to manufacturer specifications (Invitrogen, Carlsbad, Calif.). Cells were harvested 48 hours post-transfection and lysed by sonication (setting 3, 10×5 sec pulses) in a buffer containing 20 mM HEPES pH 7.4, 1 mM EDTA and Complete Protease Inhibitor Cocktail Tablets (Roche, Indianapolis, Ind.). Lysate was collected by centrifugation at 75,000×g for 20 minutes at 4° C. and supernatant utilized for evaluation of PDE2 activity. The fluorescence polarization assay for cyclic nucleotide phosphodiesterases was performed using an IMAP® FP kit supplied by Molecular Devices, Sunnyvale, Calif. (product # R8139). […] Assays were performed at room temperature in 384-well microtiter plates with an incubation volume of 20.2 μL. Solutions of test compounds were prepared in DMSO and serially diluted with DMSO to yield 8 μL of each of 10 solutions differing by 3-fold in concentration, at 32 serial dilutions per plate. […] 0% of inhibition is determined by using DMSO (1% final concentrations).
A Labcyte Echo 555 (Labcyte, Sunnyvale, Calif.) is used to dispense 200 nL from each well of the titration plate to the 384 well assay plate. Ten microliters of a solution of enzyme (1/2000 final dilution from aliquots; sufficient to produce 20% substrate conversion) was added to the assay plate. Next 10 uL of a separate solution of the substrate FAM-labeled cAMP (50 nM final concentration product # R7506 from Molecular Devices) and the activator cGMP (1 uM final concentration), prepared in the assay buffer (10 mM Tris HCl, pH 7.2, 10 mM MgCl2, 0.05% NaN3 0.01% Tween-20, and 1 mM DTT) was added to the assay plate and shaken to mix. The reaction is allowed to proceed at room temperature for 60 minutes. A binding solution is then made from the kit components, comprised of 80% Solution A, 20% Solution B and binding reagent at a volume of 1/600 the total binding solution. The enzymatic reaction is stopped by addition of 60 μL of the binding solution to each well of the assay plates and the plates are sealed and shaken for 30 seconds. The plate was incubated at room temperature for at least one hour prior to determining the fluorescence polarization (FP). The parallel and perpendicular fluorescence of each well of the plate was measured using a Tecan Genios Pro plate reader (Tecan, Switzerland) or Perkin Elmer EnVision™ plate reader (Waltham, Mass.). Fluorescence polarization (mP) was calculated from the parallel (S) and perpendicular (P) fluorescence of each sample well and the analogous values for the median control well, containing only substrate (So and Po), using the following equation: Polarization (mP)=1000*(S/So−P/Po)/(S/So+P/Po).

human PDE2A1 = target: T2, human PDE2A1 (Homo sapiens, UniProt O00408); test: IMAP FP PDE selectivity panel, human PDE2A1; type: biochemical
T2 construct: GST; purchased BPS Bioscience (San Diego, Calif.) 60020; host or cells: insect cells
T2 sequence (O00408 1-920 isoform O00408-2): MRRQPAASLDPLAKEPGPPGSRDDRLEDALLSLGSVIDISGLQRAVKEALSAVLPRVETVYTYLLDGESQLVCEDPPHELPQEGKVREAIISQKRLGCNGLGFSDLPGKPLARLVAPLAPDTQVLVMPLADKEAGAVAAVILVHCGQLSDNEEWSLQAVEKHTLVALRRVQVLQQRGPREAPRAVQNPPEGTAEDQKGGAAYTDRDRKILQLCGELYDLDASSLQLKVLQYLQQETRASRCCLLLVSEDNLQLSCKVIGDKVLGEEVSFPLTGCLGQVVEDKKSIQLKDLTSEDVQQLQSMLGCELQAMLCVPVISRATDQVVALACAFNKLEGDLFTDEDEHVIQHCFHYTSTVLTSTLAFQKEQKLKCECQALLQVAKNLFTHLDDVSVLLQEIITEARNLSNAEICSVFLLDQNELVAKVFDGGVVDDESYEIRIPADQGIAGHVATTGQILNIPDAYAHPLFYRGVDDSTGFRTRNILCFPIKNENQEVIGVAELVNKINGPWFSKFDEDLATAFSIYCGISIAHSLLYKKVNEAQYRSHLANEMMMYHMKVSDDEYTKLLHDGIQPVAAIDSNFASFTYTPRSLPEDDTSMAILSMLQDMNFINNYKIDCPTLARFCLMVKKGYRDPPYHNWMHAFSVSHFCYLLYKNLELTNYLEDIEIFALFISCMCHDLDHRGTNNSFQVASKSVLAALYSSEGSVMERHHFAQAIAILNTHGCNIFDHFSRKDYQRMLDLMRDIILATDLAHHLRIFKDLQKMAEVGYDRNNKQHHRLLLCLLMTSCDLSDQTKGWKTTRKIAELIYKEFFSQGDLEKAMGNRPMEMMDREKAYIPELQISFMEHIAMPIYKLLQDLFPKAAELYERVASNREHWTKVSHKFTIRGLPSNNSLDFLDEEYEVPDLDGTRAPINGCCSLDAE
In short: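 Human PDE2A1 tested alongside PDE1–11 by IMAP fluorescence polarization at room temperature. Substrate was 50 nM FAM-cAMP plus 1000 nM cGMP, buffer pH 7.2 with MgCl2 and DTT, enzyme set for 20% conversion. Ten 3-fold compound dilutions; 60 min reaction, then IMAP binding solution, 1 h, parallel/perpendicular fluorescence read.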

other PDE isoforms = details: reported in Annual Reports in Medicinal Chemistry 42: 4-5, 2007; cited from earlier work
[1] = reported in Annual Reports in Medicinal Chemistry 42: 4-5, 2007; cited from earlier work
[2] = Lab A, read-out: Rhesus PDE2 Ki (nM) Lab A
[3] = Lab B, read-out: Human PDE2 Ki (nM) Lab B
[4] = Lab B, read-out: Rhesus PDE2 Ki (nM) Lab B

- Ki (human PDE2A1; [3]): 6 nM
SMILES: Cc1cc(NC(c2ccc(OC(F)(F)F)cc2F)C(C)(C)O)n2nc(N)nc2n1 (stereo in doubt) [Example 258, (1S)-1-[(2-Amino-5-methyl[1,2,4]triazolo[1,5-a]pyrimidin-7-yl)amino]-1-[2-fluoro-4-(trifluoromethoxy)phenyl]-2-methylpropan-2-ol]

- Ki (human PDE2A1; [3]): 530 nM
SMILES: C[C@@H](Nc1cc(CO)cc2ncnn12)c1ccc(OC(F)(F)F)cc1 [Example 271, [5-({(1R)-1-[4-(Trifluoromethoxy)phenyl]ethyl}amino)[1,2,4]triazolo[1,5-a]pyridin-7-yl] methanol]

- Ki (human PDE2A1; [3]): 11 nM
SMILES: Fc1cc(C2(Nc3cc(C(F)F)cc4ncnn34)CC2)ccc1C(F)(F)F [Example 274, 7-(Difluoromethyl)-N-(1-(3-fluoro-4-(trifluoromethy)phenyl)cyclopropyl)-[1,2,4]triazol-[1,5-a]pyridin-5-amine]

- Ki (human PDE2A1; [3]): 1230 nM
SMILES: CCOc1cc(N[C@@H](c2ccc(C(F)(F)F)c(F)c2)C(C)(C)C)n2ncnc2n1 [Example 234, (R)-5-Ethoxy-N-(1-(3-fluoro-4-(trifluoromethyl)phenyl)-2,2-dimethylpropyl)-[1,2,4]triazolo [1,5-a]pyrimidin-7-amine]

- Ki (human PDE2A1; [3]): > 2960 nM
SMILES: CC(C)(O)C(Nc1cc(C(F)F)nc2ncnn12)c1ccc(C(F)(F)F)c(F)c1 (single isomer, unassigned) [Example 228, (S)- or (R)-1-(5-(Difluoromethyl)-[1,2,4]triazolo [1,5-a]pyrimidin-7-ylamino)-1-(3-fluoro-4-(trifluoromethyl)phenyl)-2-methylpropan-2-ol]

Further lines, the compound ahead of its results:

SMILES: CC(Nc1ccnc2ncnn12)c1ccc(C(F)(F)F)cc1 (stereo not drawn) [Example 83, N-{1-[4-(Trifluoromethyl)phenyl]ethyl}[1,2,4]triazolo[1,5-a]pyrimidin-7-amine]
- Ki (Rhesus PDE2A3; [2]): 4680 nM

SMILES: CCc1cc(NC2(c3ccc(C(F)(F)F)c(F)c3)CC2)n2ncnc2n1 [Example 68, 5-Ethyl-N-{1-[3-fluoro-4-(trifluoromethyl)phenyl]cyclopropyl}[1,2,4]triazolo[1,5-a]pyrimidin-7-amine]
- Ki (Rhesus PDE2A3): 29 nM
- Ki (human PDE2A1; [3]): 35 nM

SMILES: Cc1cc(N[C@@H](c2ccc(C(F)(F)F)c(F)c2)C(C)(C)O)n2ncnc2n1 [Example 98, (1S)-1-[3-Fluoro-4-(trifluoromethyl)phenyl]-2-methyl-1-[(5-methyl [1,2,4]triazolo[1,5-a]pyrimidin-7-yl)amino]propan-2-ol]
- Ki (Rhesus PDE2A3; [4]): 12 nM
- Ki (human PDE2A1; Human PDE2 Ki (nM) Lab B): 10 nM

SMILES: Cc1cc(NC2(c3ccc(C(F)(F)F)cc3)CC2)n2ncnc2n1 [Example 56, 5-Methyl-N-{1-[4-(trifluoromethyl)phenyl]cyclopropyl}[1,2,4]triazolo[1,5-a]pyrimidin-7-amine]
- Ki (Rhesus PDE2A3; [4]): 61 nM
- Ki (human PDE2A1; Human PDE2 Ki (nM) Lab B): 79 nM

SMILES: Cc1cc(NC(c2ccc(S(F)(F)(F)(F)F)cc2)C(C)(C)O)n2ncnc2n1 (single isomer, unassigned) [Example 117, (1R or S)-2-Methyl-1-[(5-methyl[1,2,4]triazolo[1,5-a]pyrimidin-7-yl)amino]-1-[4-(pentafluoro-λ^6-sulfanyl)phenyl] propan-2-ol]
- Ki (Rhesus PDE2A3; [4]): 5.6 nM
- Ki (human PDE2A1; Human PDE2 Ki (nM) Lab B): 4.6 nM

SMILES: COc1ccc(Cc2nn3c([C@@H](CCCc4ccccc4)[C@@H](C)O)nc(C)c3c(=O)[nH]2)cc1OC [BAY 60-7550]
- potency at other PDE isoforms (other PDE isoforms): significant potency
- brain penetration [1]: limited

SMILES: Cc1cc(N[C@@H](c2ccc(OC(F)(F)F)c(F)c2)C(C)(C)O)n2ncnc2n1 (single isomer, unassigned) [Example 92]
- Ki (Rhesus PDE2A3; [4]): 6.8 nM
- Ki (human PDE2A1; Human PDE2 Ki (nM) Lab B): 5.4 nM

SMILES: CC(Nc1ccnc2ncnn12)c1ccc(OC(F)(F)F)cc1 (stereo not drawn) [Example 84, N-{1-[4-(Trifluoromethoxy)phenyl]ethyl}[1,2,4]triazolo[1,5-a]pyrimidin-7-amine]
- Ki (Rhesus PDE2A3; [2]): 2770 nM

SMILES: Cc1cc(NC2(c3ccc(C(F)(F)F)c(F)c3)CC2)n2ncnc2n1 [Example 57, N-{1-[3-Fluoro-4-(trifluoromethyl)phenyl]cyclopropyl}-5-methyl [1,2,4]triazolo[1,5-a]pyrimidin-7-amine]
- Ki (Rhesus PDE2A3; [4]): 22 nM
- Ki (human PDE2A1; Human PDE2 Ki (nM) Lab B): 21 nM

SMILES: CC(C)(O)C(Nc1cc(C(F)F)nc2ncnn12)c1ccc(OC(F)(F)F)cc1F (single isomer, unassigned) [Example 186, (1R or S)-{[5-(Difluoromethyl) [1,2,4]triazolo [1,5-a]pyrimidin-7-yl]amino}-1-[2-fluoro-4-(trifluoromethoxy)phenyl]-2-methylpropan-2-ol]
- Ki (human PDE2A1; [3]): 1900 nM

SMILES: CC(C)(O)C(Nc1cc(C2CC2)nc2ncnn12)c1ccc(S(F)(F)(F)(F)F)cc1 (single isomer, unassigned) [Example 145, (1R or S)-1-[(5- Cyclopropyl [1,2,4]triazolo [1,5-a]pyrimidin-7-yl)amino]-2-methyl-1-[4-(pentafluoro-λ^6-sulfanyl)phenyl]propan-2-ol]
- Ki (human PDE2A1; [3]): 25 nM

SMILES: Cc1cc(NC(c2ccc(C(F)(F)F)cn2)C(C)C)n2ncnc2n1 (single isomer, unassigned) [Example 211, (R)- or (S)-5-Methyl-N-(2-methyl-1-(5-(trifluoromethyl)pyridin-2-yl)propyl)-[1,2,4] triazolo[1,5-a] pyrimidin-7-amine]
- Ki (human PDE2A1; [3]): ~2480 nM
